Results reported in US9981934B2, “Enzyme-specific fluorescent compound capable of being retained in cells” (The University of Tokyo, priority 2014, dated 2018).

Legend:
β-galactosidase [1] = target: T1, β-galactosidase (Escherichia coli, UniProt P00722); type: biochemical; settings: 30 minutes, 250 mM sodium phosphate buffer pH 7.4, excitation 550 nm
Procedure: Absorption spectrum variation and fluorescence spectrum variation (excitation wavelength: 550 nm) caused by enzyme reaction of β-galactosidase and the enzyme-specific retainable fluorescent compound of the present invention 2-CHF2-HMDER-βGal, 4-CHF2-HMDER-βGal, or 4-CH2F-HMDER-βGal for 30 minutes was measured in the presence of a 250 mM sodium phosphate buffer solution (pH: 7.4). Measurement was performed using a Shimadzu UV-2450 (manufactured by Shimadzu Corporation) and a Hitachi F-7000 (manufactured by Hitachi, Ltd.).

β-galactosidase [2] = target: T1, β-galactosidase; type: biochemical; settings: 2.5 μM compound, 0.5 mg/mL BSA; for fluorescence at the band of BSA after SDS-PAGE: 5 U β-galactosidase, excitation 488 nm
Procedure: (1) 2.5 μM 4-CH2F-HMDER-βGal and 0.5 mg/mL BSA, (2) 2.5 μM 4-CH2F-HMDER-βGal, 0.5 mg/mL BSA, and 5 U of β-galactosidase, (3) 2.5 μM 4-CHF2-HMDER-βGal, 0.5 mg/mL BSA, and 5 U of β-galactosidase, (4) 2.5 μM 2-CHF2-HMDER-βGal, 0.5 mg/mL BSA, and 5 U of β-galactosidase, and (5) 2.5 μM HMDER-βGal, 0.5 mg/mL BSA, and 5 U of β-galactosidase were each reacted in aqueous solution (500 mM sodium phosphate buffer solution having a pH of 7.4), after which the reaction products were subjected to SDS-PAGE (running gel: 10%, stacking gel: 4%, electrophoresis voltage: 200 V). […] After observation, each gel was Coomassie stained and the position of the BSA on the gel was confirmed (FIG. 4(b)).

HEK-lacZ cell lysate = target: T2, HEK-lacZ cell lysate (Escherichia coli, UniProt P00722); type: biochemical; settings: 2.5 μM compound; for fluorescence labeling of intracellular protein after SDS-PAGE: 1.5 mg/mL HEK-lacZ cell lysate, 30 minutes 37° C.
T2 construct: expressed in transfected cells; host or cells: HEK cells (HEK-lacZ), used as cell lysate
T2 sequence (P00722 whole entry): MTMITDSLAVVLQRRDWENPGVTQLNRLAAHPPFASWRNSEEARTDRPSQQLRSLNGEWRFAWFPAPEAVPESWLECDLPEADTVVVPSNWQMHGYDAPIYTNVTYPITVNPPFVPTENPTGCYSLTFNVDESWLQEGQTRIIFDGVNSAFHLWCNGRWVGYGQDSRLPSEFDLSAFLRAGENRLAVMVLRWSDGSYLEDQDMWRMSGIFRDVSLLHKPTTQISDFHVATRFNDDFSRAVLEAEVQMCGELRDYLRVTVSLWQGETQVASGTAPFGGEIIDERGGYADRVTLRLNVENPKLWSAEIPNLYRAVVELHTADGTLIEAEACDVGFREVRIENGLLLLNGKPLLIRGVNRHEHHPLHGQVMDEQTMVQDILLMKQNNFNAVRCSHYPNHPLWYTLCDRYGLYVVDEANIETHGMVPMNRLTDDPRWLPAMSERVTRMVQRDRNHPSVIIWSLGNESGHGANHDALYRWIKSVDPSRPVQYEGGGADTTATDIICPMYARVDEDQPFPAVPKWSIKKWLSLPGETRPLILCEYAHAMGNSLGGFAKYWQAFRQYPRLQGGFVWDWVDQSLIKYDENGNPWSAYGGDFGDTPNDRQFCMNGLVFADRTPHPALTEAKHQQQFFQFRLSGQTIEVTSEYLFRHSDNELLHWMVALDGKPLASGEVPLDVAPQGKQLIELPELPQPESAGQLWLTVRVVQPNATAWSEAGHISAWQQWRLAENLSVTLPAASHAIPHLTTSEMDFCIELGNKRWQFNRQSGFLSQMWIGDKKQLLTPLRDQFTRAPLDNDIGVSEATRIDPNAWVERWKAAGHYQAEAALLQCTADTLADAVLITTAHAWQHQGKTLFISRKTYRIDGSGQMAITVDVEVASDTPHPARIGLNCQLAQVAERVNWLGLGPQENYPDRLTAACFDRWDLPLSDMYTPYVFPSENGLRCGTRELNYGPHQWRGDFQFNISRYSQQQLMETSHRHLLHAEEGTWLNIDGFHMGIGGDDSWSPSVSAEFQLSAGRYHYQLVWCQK
Description: HEK cells (HEK-lacZ cells) expressing β-galactosidase and HEK cells were used.

[3] = test system: fruit fly (esg-lacZ) expressing β-galactosidase in the midgut; settings: midgut fixed with 4% PFA, reacted 10 minutes
Procedure: A fruit fly (esg-lacZ) expressing β-galactosidase in the midgut thereof was dissected and fixed with 4% FPA. Then, 4-CH2F-HMDER-βGal was added and reacted for 10 minutes.

[4] = test system: ovarian cancer cells SHIN3; settings: intraperitoneal administration, observed 1 hour later, SHIN3 cancer model mouse
Procedure: A cancer model mouse inoculated with ovarian cancer cells SHIN3 was produced. Acidic β-galactosidase activity is known to be elevated in ovarian cancer cells. 4-CH2F-HMDER-βGal was intraperitoneally administered to the cancer model mouse, and fluorescence was observed 1 hour later using a Maestro in-vivo imaging system (CRi). The observation conditions were as follows: excitation light: 490 to 530 nm, observation wavelength: 550 to 800 nm.

HEK-lacZ cells [5] = assay: Detection of β-galactosidase activity in living cells using flow cytometry; type: cell-based; settings: mixture of HEK-LacZ and HEK cells, 1 μM, 30 minutes, excitation 488 nm
Procedure: These cells were analyzed by excitation light having a wavelength of 488 nm using an Accuri C6 (Accuri Cytometers, Inc.) flow cytometer.

[6] = test system: fruit fly fat body overexpressing β-galactosidase; settings: 10 μM, fat bodies of third-instar fly
Procedure: In order to analyze cells in fruit fly (Drosophila melanogaster) fat body, overexpression of β-galactosidase was induced by crossing UAS-lacZ with hs-flp^122; Actin>y>Gal4 using a flip-out technique. To perform living-cell fluorescence imaging, fat bodies were dissected from a third-instar (final instar) fly and incubated for 29 minutes in a culture medium including 10 μM 4-CH2F-HMDER-βGal and 16 μM Hoechst 33342 (cell nuclear stain), and the fat bodies were washed with PBS and immersed in 80% glycerol. To perform immunostaining, the dissected adipocytes were immersed for 20 minutes in PBS containing 4% paraformaldehyde (PFA) and fixed. […] The observation conditions were as follows: (Hoeschst 33342) excitation light: 405 nm, observation wavelength: 415 to 490 nm, (4-C2F-HMDER-βGal) excitation light: 514 nm, observation wavelength: 525 to 600 nm, (Alexa 647 modified secondary antibodies) excitation light: 633 nm, observation wavelength: 640 to 700 nm, 40× magnification.

HEK-lacZ cells [7] = assay: Fluorescence imaging of living cells expressing β-galactosidase (confocal microscope); settings: for fluorescence imaging of β-galactosidase activity of individual cells: mixture of HEK-LacZ cells and HEK cells, without washing
Procedure: HEK cells, HEK-lacZ cells, and a mixture thereof were incubated (at 37° C. in the presence of 5% CO2) for 30 minutes together with 1 μM 4-CH2F-HMDER-βGal or HMDER-βGal, after which a fluorescence image and a differential interference image (DIC) of the cells were acquired using a confocal microscope, before and after washing twice with culture medium. […] A TCS SP5 X (manufactured by Leica) equipped with white light laser and an HCX PL APO CS 40×/1.25 objective lens (manufactured by Leica) was used as the confocal microscope, which was controlled by LAS AF software. The observation conditions were as follows: white light laser (WLL): 80% to 25%, excitation wavelength: 525 nm, observation wavelength: 535 to 595 nm, gain: 800 V (PMT1)/350 V (Scan-DIC), offset: 0%, pinhole: 67.88 μM (Airy disk).

[8] = test system: wing primordia (wing discs) with arm-lacZ / His2Av-mRFP1 cells; settings: 10 μM, 30 minutes, non-fixed wing primordia
Procedure: A male His2Av-mRFP1, FRT80B/TM6B fruit fly (Drosophila melanogaster) and a female hs-flp; arm-lacZ FRT80B fruit fly were crossed, a heat shock at a temperature of 37° C. for 1 hour was applied to the offspring at the first-instar larval stage 30 hours after hatching thereof, and cells having the following three genotypes were expressed in the wing primordia (wing discs): (1) cells expressing only β-galactosidase (arm-lacZ), (2) cells expressing only red fluorescent protein (mRFP1) (His2Av-mRFP1), and (3) cells expressing both β-galactosidase and mRFP1 (arm-lacZ/His2Av-mRFP1). […] The observation conditions were as follows: (4-CH2F-HMDER-βGal) excitation light: 514 nm, observation wavelength: 525 to 585 nm, (mRFP1) excitation light: 594 nm, emission wavelength: 610 to 700 nm, 63× magnification.

[9] = test system: Wing primordia (wing discs) of a (en-lacZ) fruit fly expressing β-galactosidase; assay: Fluorescence imaging of non-fixed biological tissue having β-galactosidase activity; settings: 20 μM, 30 minutes, room temperature
Description: The observation conditions were as follows: Ar: 40% to 25%, excitation light: 314 nm, emission wavelength: 535 to 595 nm (HyD2), 20× magnification.

T1 sequence (P00722 2-1024): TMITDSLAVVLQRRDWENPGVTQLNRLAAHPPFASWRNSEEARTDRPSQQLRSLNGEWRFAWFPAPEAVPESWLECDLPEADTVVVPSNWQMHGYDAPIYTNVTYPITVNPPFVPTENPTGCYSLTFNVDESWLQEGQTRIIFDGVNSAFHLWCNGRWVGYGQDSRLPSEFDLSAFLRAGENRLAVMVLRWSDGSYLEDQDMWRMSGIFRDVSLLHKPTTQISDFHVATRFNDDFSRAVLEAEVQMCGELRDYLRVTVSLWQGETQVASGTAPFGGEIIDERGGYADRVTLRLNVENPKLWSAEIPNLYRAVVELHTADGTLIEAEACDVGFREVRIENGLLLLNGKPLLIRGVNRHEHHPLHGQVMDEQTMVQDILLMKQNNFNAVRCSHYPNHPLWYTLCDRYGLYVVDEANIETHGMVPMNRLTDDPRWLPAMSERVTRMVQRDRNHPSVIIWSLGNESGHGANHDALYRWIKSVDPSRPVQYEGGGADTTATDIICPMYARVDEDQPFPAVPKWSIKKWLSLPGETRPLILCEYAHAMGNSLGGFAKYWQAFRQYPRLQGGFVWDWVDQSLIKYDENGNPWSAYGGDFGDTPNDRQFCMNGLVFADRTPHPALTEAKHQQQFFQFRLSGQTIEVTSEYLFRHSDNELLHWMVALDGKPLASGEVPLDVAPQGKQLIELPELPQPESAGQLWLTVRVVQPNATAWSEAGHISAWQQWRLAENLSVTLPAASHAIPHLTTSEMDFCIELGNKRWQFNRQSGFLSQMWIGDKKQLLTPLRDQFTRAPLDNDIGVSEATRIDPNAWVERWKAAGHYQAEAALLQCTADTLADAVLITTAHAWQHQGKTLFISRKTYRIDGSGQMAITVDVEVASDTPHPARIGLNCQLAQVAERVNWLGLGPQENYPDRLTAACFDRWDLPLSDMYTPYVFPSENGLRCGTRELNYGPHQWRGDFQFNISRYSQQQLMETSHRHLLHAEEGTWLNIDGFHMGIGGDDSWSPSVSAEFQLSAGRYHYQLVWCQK

Compound | fluorescence emission as a result of enzyme reaction with β-galactosidase (β-galactosidase [1]) | fluorescence at the band of BSA after SDS-PAGE (β-galactosidase [2]) | fluorescence labeling of intracellular protein after SDS-PAGE (HEK-lacZ cell lysate) | single-cell fluorescence imaging in fixed tissue [3] | cancer-site-selective fluorescence imaging [4] | differentiation of HEK-LacZ cells and HEK cells by flow cytometry (HEK-lacZ cells [5]) | fluorescence imaging of β-galactosidase-expressing cells in fat body [6] | fluorescence of HEK-LacZ cells (HEK-lacZ cells [7]; 1 μM, 30 minutes, observed without washing) | change in fluorescence intensity after washing (retention in cells) (HEK-lacZ cells [7]; 1 μM, 30 minutes, washed twice with culture medium) | fluorescence imaging of fixed samples (HEK-lacZ cells [7]; cells fixed with 4% PFA for 10 minutes after incubation) | fluorescence imaging of β-galactosidase activity of individual cells (HEK-lacZ cells [7]; 1 μM, 30 minutes) | visualization of mosaic pattern of β-galactosidase-positive cells [8] | fluorescence at the band of BSA after SDS-PAGE, sample not including β-galactosidase (β-galactosidase [2]; no β-galactosidase (lane 1)) | fluorescence labeling of intracellular protein after SDS-PAGE, HEK cells not expressing β-galactosidase (HEK-lacZ cell lysate; 1.5 mg/mL HEK cell lysate (lane 1)) | selective fluorescence imaging of the region having β-galactosidase activity [9]
CCN(CC)c1ccc2c(c1)Oc1cc(O[C@@H]3O[C@H](CO)[C@H](O)[C@H](O)[C@H]3O)c(C(F)F)cc1C21OCc2ccccc21 (stereo partly drawn) [2-CHF2-HMDER-βGal, (2S,3R,4S,5R,6R)-2-((6′-(diethylamino)-2′-(difluoromethyl)-3H-spiro[isobenzofuran-1,9′-xanthen]-3′-yl)oxy)-6-(hydroxymethyl)tetrahydro-2H-pyran-3,4,5-triol] | emitted fluorescence | Fluorescence was observed at the band of BSA | Fluorescence labeling to the intracellular protein was confirmed |  |  |  |  |  |  |  |  |  |  |  | 
CCN(CC)c1ccc2c(c1)Oc1c(ccc(O[C@@H]3O[C@H](CO)[C@H](O)[C@H](O)[C@H]3O)c1CF)C21OCc2ccccc21 (some centres unmarked) [4-CH2F-HMDER-βGal] | emitted fluorescence | Fluorescence was observed at the band of BSA | Fluorescence labeling to the intracellular protein was confirmed | it was possible to confirm a cell emitting fluorescence in a tissue | can be applied in cancer-site-selective fluorescence imaging | possible to clearly differentiate between these cell types | it is possible to perform fluorescent imaging of cells of interest in which β-galactosidase is expressed | exhibited clear fluorescence | almost no change in fluorescence intensity | Fluorescence imaging with the fixed samples was also possible | a definite difference in fluorescence level among individual cells was observed | the mosaic pattern of the cells having the three genotypes described above was clearly visualized | Fluorescence was not observed | Fluorescence was not confirmed | selective fluorescence imaging of the region of interest (posterior section) having β-galactosidase activity was possible
CCN(CC)c1ccc2c(c1)Oc1c(ccc(O[C@@H]3O[C@H](CO)[C@H](O)[C@H](O)[C@H]3O)c1C(F)F)C21OCc2ccccc21 (stereo partly drawn) [4-CHF2-HMDER-βGal, (2S,3R,4S,5R,6R)-2-((3′-(diethyiamino)-5′-(difluoromethyl)-3H-spiro[isobenzofuran-1,9′-xanthen]-6′-yl)-oxy)-6-(hydroxymethyl)tetrahydro-2H-pyran-3,4,5-triol] | emitted fluorescence | Fluorescence was observed at the band of BSA | Fluorescence labeling to the intracellular protein was confirmed |  |  |  |  |  |  |  |  |  |  |  | 
CCN(CC)c1ccc2c(c1)Oc1cc(OC3OC(CO)C(O)C(O)C3O)ccc1C21OCc2ccccc21 (centres unmarked) [HMDER-βGal, reference compound] |  | Fluorescence was not observed | Fluorescence was not confirmed |  |  | the cells could not be differentiated |  |  |  |  | fluorescence imaging of β-galactosidase activity of individual eels was not possible |  |  |  | the region of interest having β-galactosidase activity could not be discerned
